Measurements reported in patent US11690841B2, “Glycolysis-activating agents for treatment or prevention of disease” (Queen Mary University of London, priority 2017, dated 2023).

Columns and labels:
Tregs [1] = assay: T cell recruitment in the peritoneum (labelled drug-treated Tregs injected into IFN-γ-treated syngeneic recipients); type: in vivo, mice; details: for Treg migration / trafficking in vivo: drug-treated PKH26-labelled Tregs injected i.v. into recipients given IFN-γ i.p. 48 hours earlier, harvested after 24 hours
Description: FIG. 3. Drug- or vehicle-treated Tregs labeled with the fluorescent intravital dye PKH26 were injected i.v. into syngeneic recipients treated with IFN-γ i.p. 48 hours earlier. Cells were harvested from the indicated tissues after 24 hours and analyzed by flow cytometry. Representative dot plots from 3 animals are shown in panels A and C. The mean absolute number of labeled cells recovered in 4 animals±SD is shown in panels B and D. (N=1)
(§1) FIG. 20. A: AZD1656 (GCK activator, 1 μM) and vehicle-treated Tregs (2 hours in insulin-free medium) were labeled with different intravital fluorescent dyes, and co-injected into syngeneic recipients that had received IFN-γ i.p. 48 hours earlier. Cells were recovered from the peritoneum or spleen after 24 hours and analyzed by flow cytometry. Representative dot plots are shown. The bar graphs indicate mean absolute number of labeled cells retrieved±SD (n=4 N=2). B-C: expression of PCNA by Tregs stimulated with allogeneic DCs following treatment with either AZD1656 (B) or Clotrimazole (CLT, 1 μM, 2 hours, C) or vehicle alone was measured by flow cytometry. NS, non-stimulated control Tregs. Representative histograms are shown. (n=3, N=3).
FIG. 21. A: ECAR of Treg cells activated with recombinant ICAM-1 or Fc control. CLT or vehicle, as well as other glycolysis-affecting drugs were added as indicated. B: CLT- or vehicle-treated Tregs underwent CD28 or isotype-matched antibody-stimulation, labelled with different intravital fluorescent dyes and injected i.v. in syngeneic recipients that had received IFN-γ i.p. 48 hours earlier. Cells were recovered from the peritoneum (P) or spleen (S) after 24 hours and analyzed by flow cytometry. Representative dot plots are shown. The column graphs indicate mean absolute number of labeled cells retrieved±SD (n=3 N=2). * p<0.05 ***p<0.005; ****p<0.001.
T cell recruitment in the peritoneum. To observe in vivo recruitment of T cells we used the previously described model of T cell recruitment (Mirenda et al., 2007). Either PKH26 or CFSE or DDAO-SE-labelled T cells (10^7) were injected intravenously (i.v.) into mice that hd received IFN-γ (600U) via intraperitoneal injection (i.p.) 48 to 72 hours earlier. Labeled T cells recovered via peritoneal lavage were analyzed 16 hours later using flow cytometry. In addition, localization of Tregs to the spleen, where entry occurs in a passive manner (Fu et al., 2016), was analyzed to ensure that similar numbers/proportion of labeled cells were injected or co-injected in all recipients (internal control).

Tregs [2] = assay: Treg trans-endothelial migration and chemotaxis transwell assays; type: cell-based, mouse; details: Tregs pre-treated with drug for 4 hours; through IFN-γ-treated EC monolayers or in response to CCL22 / CXCL10
Description: FIG. 1. Glycolysis fuels Treg migration. Ex vivo expanded Tregs pre-treated with the indicated drugs or vehicle for 4 hours were left to migrate through 3 μm-pore transwells layered with IFN-γ-treated syngeneic EC monolayers (A-B) or in response chemokine CCL22 through bare filter 5 μm-pore transwells (C-D). Results are expressed as percentage of migrated cells after 24 hours (A-B, n=4, N=2) or at the indicated time-points (C, n=3)±SD. The fold increase in migration was calculated by dividing experimental migration by spontaneous migration measured at 6 hours in two experiments of identical design performed in triplicates±SD.
FIG. 2. Activated Treg phenotype and function and effect of exposure to metabolism-modifying drugs. Tregs were expanded as previously described (Fu et al., 2014). A-B Tregs were treated with the indicated metabolism-targeting drugs for 4-6 hours and extensively washed. Migration of drug-exposed Tregs in response to CXCL10 (300 ng/ml) was assessed by a transwell-based assay. Results are expressed as the mean percentage of migrated cells at the indicated time points±SD. Data obtained at 6 hours from three independent experiments of identical design and normalized by spontaneous migration±SD are shown in panel B. *P<0.05.
FIG. 5. Tregs were treated with the indicated metabolism-targeting drugs for 4-6 hours, extensively washed and cultured overnight in medium alone. Migration of drug-exposed Tregs in response to CCL22 (300 ng/ml, A-B) CXCL10 (300 ng/ml, C-D) was assessed by a 6 hr chemokinesis transwell assay ([…]). Results are expressed as the mean percentage of migrated cells in a typical experiment performed in triplicate±SD (A, C). […]
Lymphocyte trans-endothelial migration and chemotaxis assays. […] The number of migrated T cells was determined by a hemocytometer counting of the cells present in the well media at different time points over a 24-h period. […] The number of migrated cells was determined by a hemocytometer.

B6Kd skin allograft = assay: Survival of B6Kd-derived skin grafts transplanted in C57BL/6 recipients; type: in vivo, C57BL/6 mice; details: 10 mg/kg twice daily (20 mg/kg daily) for 2 weeks after transplantation
Description: C57B16 mice received a B6Kd skin graft or syngeneic skin as a control. […] To establish the selectivity of GCK usage by Tregs to sustain their motility, we compared the effect of pharmacological activation of GCK on the survival of B6Kd-derived skin grafts transplanted in C57BL/6 recipients. […] This schedule was designed in order to promote migration of endogenous Tregs during the early stages of the alloresponse. Control groups received saline solution with vehicle alone.

Tregs [3] = assay: PCNA expression by Tregs stimulated with allogeneic DCs (flow cytometry); type: cell-based, mouse; details: 1 μM, 2 hours
Description: as §1
Intracellular staining. For intracellular Foxp3 staining, eBioscience Anti-Mouse/Rat Foxp3 Staining Set APC (clone FJK-165, Thermo Fisher Scientific Cat #17-5773-82) kit was used. Cells were resuspended (10^7/ml) and stained with surface antigens as mentioned above and then fixed/permeabilized for 30 minutes at 4° C. using Fixation/Permeabilization working solution made from mixing 1 part of the fixation/permebilization concentrate (eBioscience, Cat #00-5123) to 3 parts of the fixation/permebilization diluent (eBioscience, Cat #00-5223). […]

Tregs [4] = assay: ECAR of Treg cells activated with recombinant ICAM-1; type: cell-based, mouse; details: Tregs activated with recombinant ICAM-1
Description: A: ECAR of Treg cells activated with recombinant ICAM-1 or Fc control. CLT or vehicle, as well as other glycolysis-affecting drugs were added as indicated. […] Measurement of ECAR and OCR. Real time bioenergetics analysis of extracellular acidification rates (ECAR) and oxygen consumption rates (OCR) of T cells subjected to antibody stimulation was performed using the XF analyzer (Seahorse biosciences). T cells were cultured in serum free, unbuffered XF assay medium (Seahorse biosciences, Cat #102365-100) for 1 hour. The cells were then seeded (6×10^5/well) into the seahorse XF24 cell plates for analysis. Perturbation profiling of the use of metabolic pathways by T cells was achieved by the addition of oligomycin (1 μM), FCCP (1 μM), Antimycin A (1 μM), rotenone (1 μM), D-glucose (10 mM), 2-Deoxy-D-glucose (2DG, 50 mM; all from Seahorse biosciences, Cat #103020-100 and 103015-100). Experiments with the Seahorse system were done with the following assay conditions: 2 min mixture; 2 minutes wait; and 4-5 min measurement. Metabolic parameters were calculated. Experiments were done in at least triplicate wells.

[5] = tested on: CD3/CD28-stimulated Tconv cells; assay: ECAR and OCR fluxometry (Seahorse) of anti-CD3 plus anti-CD28 stimulated CD4+ T cells; type: cell-based, mouse
Description: Real time analysis of the ECAR and OCR of CD4+ T cells stimulated for 24 hours with anti-CD3 plus anti-CD28 antibodies was performed using fluxometry. Wells were injected first with CLT or Vehicle. A second injection followed at the time point indicated (dashed line) introducing D-glucose into the wells. Subsequently, modulators of glycolysis (A) or cellular respiration (B) were sequentially injected at the indicated time points. […] OCR=Oxygen Consumption Rate: indirect measure of mitochondrial respiration and fatty acid oxidation (FAO). Measurement of ECAR and OCR. Real time bioenergetics analysis of extracellular acidification rates (ECAR) and oxygen consumption rates (OCR) of T cells subjected to antibody stimulation was performed using the XF analyzer (Seahorse biosciences). T cells were cultured in serum free, unbuffered XF assay medium (Seahorse biosciences, Cat #102365-100) for 1 hour. The cells were then seeded (6×10^5/well) into the seahorse XF24 cell plates for analysis. Perturbation profiling of the use of metabolic pathways by T cells was achieved by the addition of oligomycin (1 μM), FCCP (1 μM), Antimycin A (1 μM), rotenone (1 μM), D-glucose (10 mM), 2-Deoxy-D-glucose (2DG, 50 mM; all from Seahorse biosciences, Cat #103020-100 and 103015-100). […] Metabolic parameters were calculated. […]

Structure (SMILES) | Treg migration / trafficking in vivo (Tregs [1]) | Treg migration / motility in vitro (Tregs [2]) | Treg division (PCNA expression / upregulation) (Tregs [3]) | other results
O=CC[C@@H](O)[C@H](O)[C@H](O)CO [2-DG, 2-deoxyglucose] | migrated inefficiently | migrated inefficiently | – | –
COC[C@H](C)Oc1cc(Oc2cnc(C(=O)N3CCC3)cn2)cc(C(=O)Nc2cnc(C)cn2)c1 [AZD1656, 3-[5-(azetidine-1-carbonyl)pyrazin-2-yl]oxy-5-[(2S)-1-methoxypropan-2-yl]oxy-N-(5-methylpyrazin-2-yl)benzamide] | – | – | did not affect | Treg migration to the inflamed tissue (Tregs [1]; Tregs treated with 1 μM for 2 hours in insulin-free medium, co-injected with vehicle-treated Tregs, peritoneum after 24 hours): significantly enhanced; Skin graft rejection (B6Kd skin allograft): significantly delays
Clc1ccccc1C(c1ccccc1)(c1ccccc1)n1ccnc1 [CLT, Clotrimazole] | – | – | effective at inhibiting | Treg migration to inflamed peritoneum in vivo (Tregs [1]; drug-treated Tregs with CD28 or isotype antibody stimulation, injected i.v., recovered after 24 hours): did not affect; rICAM-1-mediated induction of glycolysis (ECAR) (Tregs [4]): did not affect; Glycolytic flux (ECAR) [5]: inhibits; Respiration (OCR) [5]: inhibits
CCOC(=O)[C@@]1(CCCCCCOc2ccc(Cl)cc2)CO1 [Etomoxir] | – | Treg migration does not require fatty acid oxidation | – | –
CN(C)C(=N)N=C(N)N [metformin] | increased | increased Treg motility | – | –
